Assay results reported in ChEMBL document CHEMBL5058564, “EUbOPEN Chemogenomics Library 2 (Incucyte)” (2022).

How the values were obtained:
Type in all cases: toxicity, cell-based
U2OS = assay: Incucyte cell viability with U2OS; conditions: human, 10 µM, compound concentration 10 uM
Fibroblast = assay: Incucyte cell viability with human fibroblast; conditions: 10 µM, compound concentration 10 uM
HEK-293T = assay: Incucyte cell viability with HEK293T; conditions: human, 10 µM, compound concentration 10 uM
[1] = 0 h, replicate number 1, timepoint 0 hours
[2] = 0 h, replicate number 2, timepoint 0 hours
[3] = 6 h, replicate number 1, timepoint 6 hours
[4] = 6 h, replicate number 2, timepoint 6 hours
[5] = 12 h, replicate number 1, timepoint 12 hours
[6] = 12 h, replicate number 2, timepoint 12 hours
[7] = 18 h, replicate number 1, timepoint 18 hours
[8] = 18 h, replicate number 2, timepoint 18 hours
[9] = 24 h, replicate number 1, timepoint 24 hours
[10] = 24 h, replicate number 2, timepoint 24 hours
Further: unitless GR value; below 1 slowed growth and below 0 cell loss.

SMILES | Growth Rate (U2OS; [1]) | Growth Rate (U2OS; [2]) | Growth Rate (U2OS; [3]) | Growth Rate (U2OS; [4]) | Growth Rate (U2OS; [5]) | Growth Rate (U2OS; [6]) | Growth Rate (U2OS; [7]) | Growth Rate (U2OS; [8]) | Growth Rate (U2OS; [10]) | Growth Rate (Fibroblast; [9]) | Growth Rate (HEK-293T; [3]) | Growth Rate (HEK-293T; [5]) | Growth Rate (HEK-293T; [7]) | Growth Rate (HEK-293T; [9]) | Growth Rate (Fibroblast; [3]) | Growth Rate (Fibroblast; [4]) | Growth Rate (Fibroblast; [5]) | Growth Rate (Fibroblast; [7]) | Growth Rate (HEK-293T; [6]) | Growth Rate (HEK-293T; [8]) | further results
Oc1c(CN2CCN(c3ccccn3)CC2)cc(Cl)c2cccnc12 | 0.03 | -0.6 | 0.19 | -0.14 | 0.01 | 0.21 | -0.04 | 0.1 | 0.08 | 0.65 | -0.48 | -0.03 | 0.11 | 0.17 |  |  |  |  |  |  | Growth Rate (U2OS; [9]): -0.07; Growth Rate (Fibroblast; [10]): 0.89; Growth Rate (HEK-293T; [2]): -1
CC[C@H](Nc1ncnc2[nH]cnc12)c1nc2cccc(F)c2c(=O)n1-c1ccccc1 [IDELALISIB] | 0.06 | -0.03 | 0.46 | 0.59 | 0.4 | 0.55 | 0.44 | 0.68 | 0.73 | -0.13 | 0.2 | 0.52 | 0.56 | 0.64 | -0.73 | 0.36 | -0.05 | -0.04 | 0.57 | 0.7 | Growth Rate (U2OS; [9]): 0.59; Growth Rate (Fibroblast; [6]): 0.48; Growth Rate (Fibroblast; [8]): 0.59; Growth Rate (Fibroblast; [10]): 0.75; Growth Rate (HEK-293T; [4]): 0.76; Growth Rate (HEK-293T; [10]): 0.68
CCc1nc2c(C)cc(C)nc2[nH]1 |  |  | 0.2 |  | 0.62 |  | 0.7 | 0.93 | 0.96 |  |  |  |  |  |  | 0.58 |  |  |  | 0.89 | Growth Rate (Fibroblast; [1]): 0.65; Growth Rate (Fibroblast; [6]): 0.69; Growth Rate (Fibroblast; [8]): 0.92
Cc1cccc(NC(=O)CN2CCC(c3ccccn3)CC2)c1.Cl.Cl |  | -1 |  |  |  |  |  |  |  | 0.77 | 0.47 | 0.79 |  |  | 0.02 |  | 0.19 | 0.48 | 0.97 | 0.98 | Growth Rate (Fibroblast; [2]): 0.72; Growth Rate (HEK-293T; [4]): 0.66
Cc1ccc(CNc2ncnc3ccc(-c4ccc(CO)o4)cc23)o1 | -0.73 |  |  |  |  |  |  |  |  |  |  |  |  |  |  |  |  |  |  |  | Growth Rate (Fibroblast; [1]): -0.65; Growth Rate (Fibroblast; [2]): 0.65; Growth Rate (HEK-293T; [1]): 0.47
COc1ccc2c(c1)C(C(=O)N(Cc1ccc(N(C)C)cc1)c1ccc(C(C)C)cc1)CCC2.Cl (configuration not stated) | -0.58 | -1 | 0.25 |  | 0.93 | 0.84 | 0.73 | 0.81 | 0.79 | 0.93 |  | 0.27 | 0.43 | 0.52 | 0.76 |  |  |  | 0.46 | 0.59 | Growth Rate (HEK-293T; [1]): 0.39; Growth Rate (HEK-293T; [2]): 0.72; Growth Rate (HEK-293T; [10]): 0.76
c1ccc(NCc2ccc(CNc3ccccn3)cc2)nc1 |  | -1 |  |  |  |  | 0.76 | 0.98 |  | 0.76 | 0.66 | 0.44 | 0.98 |  |  | 1 | 0.23 | 0.88 | 0.83 |  | Growth Rate (U2OS; [9]): 0.93; Growth Rate (Fibroblast; [6]): 0.64; Growth Rate (HEK-293T; [2]): 0.94; Growth Rate (HEK-293T; [4]): 0.7
Cl.Cl.NCCc1c[nH]cn1 [HISTAMINE DIHYDROCHLORIDE] | 0.04 | 0.37 | 0.35 |  | 0.76 | 0.97 | 0.74 |  |  | 0.52 | 0.99 | 0.79 | 0.83 | 0.82 |  |  | 0.77 | 0.99 |  | 0.79 | Growth Rate (Fibroblast; [1]): 0.45; Growth Rate (Fibroblast; [6]): 1; Growth Rate (Fibroblast; [8]): 0.87; Growth Rate (Fibroblast; [10]): 0.76; Growth Rate (HEK-293T; [1]): 0.54; Growth Rate (HEK-293T; [2]): 0.62; Growth Rate (HEK-293T; [10]): 0.75
NCCc1cn(S(=O)(=O)c2c(Cl)nc3sccn23)c2ccccc12.O=C(O)C(=O)O |  |  | -0.18 | 0.34 | 0.52 | 0.36 | 0.72 | 0.45 | 0.57 | -0.67 | -0.34 | 0.22 | 0.4 | 0.57 | -0.77 | -0.79 | -0.66 | -0.67 | 0.08 | 0.51 | Growth Rate (U2OS; [9]): 0.87; Growth Rate (Fibroblast; [6]): -0.5; Growth Rate (Fibroblast; [8]): -0.42; Growth Rate (Fibroblast; [10]): -0.31; Growth Rate (HEK-293T; [10]): 0.52
CC(C)Oc1ccc(Cc2ccc(NC3=NCCN3)cc2)cc1 | -0.1 | 0.45 | 0.26 | 0.51 | 0.74 | 0.75 | 0.82 | 0.91 | 0.95 | 0.42 | -0.2 | 0.03 | 0.16 | 0.24 | 0.07 | -0.09 | 0.4 | 0.28 | 0.1 | 0.27 | Growth Rate (U2OS; [9]): 0.84; Growth Rate (Fibroblast; [6]): 0.19; Growth Rate (Fibroblast; [8]): 0.64; Growth Rate (Fibroblast; [10]): 0.46; Growth Rate (HEK-293T; [4]): -0.01; Growth Rate (HEK-293T; [10]): 0.21
O=C(O)CCC/C=C\C[C@H]1C(=O)C[C@@H](O)[C@@H]1/C=C/[C@@H](O)CCc1ccccc1 | 0.49 |  | 0.41 |  | 0.52 |  | 0.77 |  |  | 0.66 | 0.8 | 0.68 | 1 | 0.89 | 0 |  | 0.4 | 0.74 |  |  | Growth Rate (U2OS; [9]): 0.97; Growth Rate (Fibroblast; [1]): 0.15; Growth Rate (Fibroblast; [2]): -0.3; Growth Rate (HEK-293T; [2]): -0.05
C[C@@H]1CN(Cc2ccc(F)cc2)CCN1C(=O)COc1ccc(Cl)cc1NC(N)=O [BX 471 FREE BASE] | -0.96 | -1 |  | 0.94 |  | 0.91 |  | 0.79 | 0.89 | -0.14 | -0.13 | -0.03 | 0.11 | 0.18 | -0.16 | 0.36 | -0.14 | -0.19 | 0.27 | 0.4 | Growth Rate (Fibroblast; [1]): 0.82; Growth Rate (Fibroblast; [2]): 0.24; Growth Rate (Fibroblast; [6]): 0.49; Growth Rate (Fibroblast; [8]): 0.85; Growth Rate (Fibroblast; [10]): 0.72; Growth Rate (HEK-293T; [4]): 0.4; Growth Rate (HEK-293T; [10]): 0.33
CC(=O)NCCc1c(Cc2ccccc2)[nH]c2ccccc12 [LUZINDOLE] | 0.42 |  | 0.72 | 0.96 |  | 0.87 |  | 0.76 | 0.88 |  |  | 0.96 |  |  | 0.87 |  | 0.94 |  |  |  | Growth Rate (Fibroblast; [2]): 0.86; Growth Rate (HEK-293T; [4]): 0.58
Cc1nc(C#Cc2cccnc2)cs1.Cl | 0 | 0.3 |  | 0.72 |  | 0.84 | 0.97 |  |  | 0.25 | 0.68 | 0.63 | 0.84 | 0.76 | 0.49 | 0.58 | 0.32 | 0.37 | 0.87 | 0.94 | Growth Rate (Fibroblast; [2]): 0.91; Growth Rate (HEK-293T; [1]): 0.27; Growth Rate (HEK-293T; [2]): 0.23; Growth Rate (HEK-293T; [10]): 0.73
